Experimental data as given in patent US12208118B2, “Pharmaceutical compositions for delivery of peptide” (ANYA BIOPHARM INC., priority 2017, dated 2025).

What was measured:
[1] = Quantification of liraglutide level in dog plasma using ELISA kit; type: in vivo; conditions: following subcutaneous and oral administration, dogs
Description: Quantification of Liraglutide Level in Dog Plasma Using ELISA Kit
Test formulation I: Liraglutide—Appearance: Solution for injection in a prefilled pen; Concentration: 6 mg/ml; Date of manufacture: February 2017; Date of expiry: July 2019; Storage condition: 2-8° C.; Dose: 0.6 mg/dog; Route: SC.
Test formulation II (FA): MIRA 5 (Table 15E)+PA 2 (Table 16F)—Dose: 12 mg (one capsule)/dog; Route: Oral.
Test formulation III (G): MIRA 5 (Table 15E)+PA 3+4 (Table 16G)—Dose: 12 mg (one capsule)/dog; Route: Oral
The clinical signs observed are normal. Body weights of the dogs used in the study were recorded prior to dosing. During the period of dose administration, the dogs (Canis lupus familiaris. Breed: Beagle) were fasted (water allowed) overnight for approx. 12 hours prior to and 4 hours post dose administration. During dosing, the blood collection time points was at 0, 20, 30, 60, 120, 180, 240, 480 minutes post dose. […] Glucose was measured immediately after blood collection using Glucometer. […]
Kit Protocol: Used manufacturer recommended protocol (Cat.No.KBI5020) Ver2.0—(1) Determine wells for diluted standard, blank and sample. […] Add 50 μL each of dilutions of standard (read Reagent Preparation), blank and samples into the appropriate wells, respectively. […] Then, run the microplate reader and conduct measurement at 450 nm immediately.

[2] = Quantification of teriparatide in rat plasma using ELISA kit; type: in vivo, S.D. rats; conditions: following subcutaneous and distal small intestine (ileum) administration, rats
Description: Quantification of Teriparatide in Rat Plasma Using ELISA Kit
Test formulation I: Teriparatide; Apprearance: Solution for injection; Concentration: 600 μg/2.4 ml; Storage condition: 2-8° C.; Dose: 10 μg/animal; Route: SC.
Test formulation II: MIRA 4 (Table 15D) plus PA1 (Table 16D) was dosed into distal small intestine (ileum) at a dose of 240 μg/animal to anesthetized rats; Dose: 240 μg/animal; Route: distal small intestine (ileum).
Test formulation III: MIRA 1 (Table 15A) plus PA3 (Table 16E) was dosed into distal small intestine (ileum) at a dose of 240 μg/animal to anesthetized S.D. rats; Dose: 240 μg/animal; Route: distal small intestine (ileum).
During the experiment, the animals were non-fasted. […] The clinical signs observed are normal. […]
Kit Protocol: Used manufacturer recommended protocol (Cat.No. 60-3900)—Place a sufficient number of Streptavidin Coated Strips in a holder to run PTH standards, controls and unknown samples; Pipet 150 μL of standard, control, or sample into the designated or mapped well. […] Read the absorbance at 620 nm (see Note) within 5 minutes in a microtiter plate reader against the 0 μg/mL Standard wells as a blank; Immediately pipet 50 μL of ELISA Stop Solution into each of the wells. […]

[3] = Quantification of octreotide in rat plasma using ELISA kit; type: in vivo, S.D. rat; conditions: following subcutaneous and distal small intestine (ileum) administration, rats
Description: Quantification of Octreotide in Rat Plasma Using ELISA Kit
Test formulation I: Octreotide—Apprearance: Solution for injection; Concentration: 0.1 mg/ml; Storage condition: 2-8° C.; Dose: 10 μg/kg; Route: SC.
Test formulation II: MIRA 3 (Table 15C)+PA 1 (Table 16C) to be dosed into distal small intestine (ileum) to anesthetized S.D. rat; Dose: 144 μg/animal; Route: distal small intestine (ileum). During the experiment, the animals were non-fasted.
The clinical signs observed are normal. During dosing, the blood collection time points were at 0, 7, 15, 30, 45, 60 and 90 min post dose. ˜100 μl of blood was collected in a pre-filled Na-EDTA eppendorf, from retro-orbital sinus puncture. Blood was centrifuged at 5000 rpm, 5 min, 4° c. to obtain plasma.
Source: PeninsulaLaboratories International, Inc, Cat. No. S-1341.0001
Kit Protocol: Used manufacturer recommended protocol (Cat. No. S-1341.0001)—Into each well of the immunoplate add 25 μl antiserum (in EIA buffer). Add 25 μl EIA buffer to blank wells; Incubate at room temperature for 1 hour; Add 50 μl standard or sample (in diluent). […] Add 50 μl diluent to blank wells; Incubate at room temperature for 2 hours. […] You may read the developing blue color at 650 nm and use the data for your calculations. […] Read absorbance at 450 nm within ten minutes.

CCCCCCCCCCCCCCCC(=O)N[C@@H](CCC(=O)NCCCC[C@H](NC(=O)[C@H](C)NC(=O)[C@H](C)NC(=O)[C@H](CCC(N)=O)NC(=O)CNC(=O)[C@H](CCC(=O)O)NC(=O)[C@H](CC(C)C)NC(=O)[C@H](Cc1ccc(O)cc1)NC(=O)[C@H](CO)NC(=O)[C@H](CO)NC(=O)[C@@H](NC(=O)[C@H](CC(=O)O)NC(=O)[C@H](CO)NC(=O)[C@@H](NC(=O)[C@H](Cc1ccccc1)NC(=O)[C@@H](NC(=O)CNC(=O)[C@H](CCC(=O)O)NC(=O)[C@H](C)NC(=O)[C@@H](N)Cc1cnc[nH]1)[C@@H](C)O)[C@@H](C)O)C(C)C)C(=O)N[C@@H](CCC(=O)O)C(=O)N[C@@H](Cc1ccccc1)C(=O)N[C@H](C(=O)N[C@@H](C)C(=O)N[C@@H](Cc1c[nH]c2ccccc12)C(=O)N[C@@H](CC(C)C)C(=O)N[C@H](C(=O)N[C@@H](CCCNC(=N)N)C(=O)NCC(=O)N[C@@H](CCCNC(=N)N)C(=O)NCC(=O)O)C(C)C)[C@@H](C)CC)C(=O)O [Liraglutide]
clinical signs [1]: normal | mortality [1]: no mortality observed

CC[C@H](C)[C@H](NC(=O)[C@H](CCC(=O)O)NC(=O)[C@H](CO)NC(=O)[C@@H](NC(=O)[C@@H](N)CO)C(C)C)C(=O)N[C@@H](CCC(N)=O)C(=O)N[C@@H](CC(C)C)C(=O)N[C@@H](CCSC)C(=O)N[C@@H](Cc1cnc[nH]1)C(=O)N[C@@H](CC(N)=O)C(=O)N[C@@H](CC(C)C)C(=O)NCC(=O)N[C@@H](CCCCN)C(=O)N[C@@H](Cc1cnc[nH]1)C(=O)N[C@@H](CC(C)C)C(=O)N[C@@H](CC(N)=O)C(=O)N[C@@H](CO)C(=O)N[C@@H](CCSC)C(=O)N[C@@H](CCC(=O)O)C(=O)N[C@@H](CCCN=C(N)N)C(=O)N[C@H](C(=O)N[C@@H](CCC(=O)O)C(=O)N[C@@H](Cc1c[nH]c2ccccc12)C(=O)N[C@@H](CC(C)C)C(=O)N[C@@H](CCCN=C(N)N)C(=O)N[C@@H](CCCCN)C(=O)N[C@@H](CCCCN)C(=O)N[C@@H](CC(C)C)C(=O)N[C@@H](CCC(N)=O)C(=O)N[C@@H](CC(=O)O)C(=O)N[C@H](C(=O)N[C@@H](Cc1cnc[nH]1)C(=O)N[C@@H](CC(N)=O)C(=O)N[C@@H](Cc1ccccc1)C(=O)O)C(C)C)C(C)C [teriparatide]
clinical signs [2]: normal | mortality [2]: no mortality observed

C[C@@H](O)[C@@H]1NC(=O)[C@H](CCCCN)NC(=O)[C@@H](Cc2c[nH]c3ccccc23)NC(=O)[C@H](Cc2ccccc2)NC(=O)[C@@H](NC(=O)[C@H](N)Cc2ccccc2)CSSC[C@@H](C(=O)N[C@H](CO)[C@@H](C)O)NC1=O [octreotide]
clinical signs [3]: normal | mortality [3]: no mortality observed
